Counter-ions that a name gives are not always drawn.

For the experiment, the target named is T1, small-conductance Ca2+-activated K+ channels (SK channels, subtype 2) (Homo sapiens, UniProt Q9H2S1).
T1 construct: expressed in transfected cells; host or cells: HEK293
The experiment is described as follows: whole-cell patch-clamp of ionic current through SK2 channels in HEK293 cells (SC100). In kind it is cell-based. Conditions: HEK293 cells expressing SK2 channels, concentration that increases the basal current by 100%; for SC100 (μM): whole-cell patch-clamp. As to the method: The biological activity was determined as follows. The ionic current through small-conductance Ca^2+-activated K^+ channels (SK channels, subtype 2) was measured using the whole-cell configuration of the patch-clamp technique in a patch-clamp set-up using HEK293 tissue culture cells expressing SK2 channels as described in Hougaard et al., British Journal of Pharmacology 151, 655-665, May 8, 2007, the entire teachings of which are incorporated herein by reference. In one aspect, a compound is defined to be an SK PAM if the compound increases current in this assay, for example, if the SC100 value of the compound is less than or equal to 10 μM as determined by this assay. The SC100 value is defined to be the concentration of compound that increases the basal current by 100%.
On the technique in general: The patch-clamp technique gives a direct electrical read-out from membranes.

Consider `Cc1csc(-c2cc(N(C)C)cc(NC3CCC(F)(F)CC3)n2)n1`, for which the “SC100 (μM)” value is listed as “++ (++ means 200 nM-1000 nM)”. On the same count and under the same terms, the same measure for `FCc1ccn(-c2nc(NC3CC=CCC3)cc(N3CCOCC3)n2)n1` (stereo not shown): “+ (+ means >1 uM)”. For `FCc1ccn(-c2nc(NC3CCC(F)CC3)cc(N3CCOCC3)n2)n1` (stereo not shown), the “SC100 (μM)” value was “+ (+ means >1 uM)”. With `Cc1cc(C)n(-c2nc(NC3CCC(F)(F)CC3)cc(N3CCOC(CO)C3)n2)n1` (racemic) [Compound 110, (4-(6-((4,4-difluorocyclohexyl)amino)-2-(3,5-dimethyl-1H-pyrazol-1-yl)pyrimidin-4-yl)morpholin-2-yl)methanol], the SC100 result was “++ (++ means 200 nM-1000 nM)”. Consider `Cc1cc(C)n(-c2cc(NC3CCN(C)C3=O)cc(NC3CCC(F)(F)CC3)n2)n1` (racemic) [Compound 135, 3-((2-((4,4-difluorocyclohexyl)amino)-6-(3,5-dimethyl-1H-pyrazol-1-yl)pyridin-4-yl)amino)-1-methylpyrrolidin-2-one], for which the SC100 result is reported as “+ (+ means >1 uM)”.

In the case of `Cc1csc(-c2nc(NC3CCC(F)(F)CC3)cc(C(C)O)n2)n1` (racemic) [Compound 362, 1-(6-((4,4-difluorocyclohexyl)amino)-2-(4-methylthiazol-2-yl)pyrimidin-4-yl)ethan-1-ol], the SC100 result was “++ (++ means 200 nM-1000 nM)”. The same measure, in the same setting: the same measure for `Cc1cc(C)n(-c2nc(NC3CCC(F)(F)CC3)cc([C@H]3COCC[C@H]3O)n2)n1` (relative stereo) [Compound 257, (−)-3-(6-((4,4-difluorocyclohexyl)amino)-2-(3,5-dimethyl-1H-pyrazol-1-yl)pyrimidin-4-yl)tetrahydro-2H-pyran-4-ol]: “+ (+ means >1 uM)”; for `Cc1cc(C)n(-c2nc(NC3CCC(F)(F)CC3)cc(N3CCO[C@@H](CO)C3)n2)n1` (single isomer, unassigned) [Compound 112, (+)-(4-(6-((4,4-difluorocyclohexyl)amino)-2-(3,5-dimethyl-1H-pyrazol-1-yl)pyrimidin-4-yl)morpholin-2-yl)methanol]: “++ (++ means 200 nM-1000 nM)”; for `Cc1cc(C)n(-c2nc(NC3CCC(F)(F)CC3)cc(N3CCO[C@H](CO)C3)n2)n1` (single isomer, unassigned) [Compound 113, (−)-(4-(6-((4,4-difluorocyclohexyl)amino)-2-(3,5-dimethyl-1H-pyrazol-1-yl)pyrimidin-4-yl)morpholin-2-yl)methanol]: “++ (++ means 200 nM-1000 nM)”. With `Cc1cc(C)n(-c2nc(NC3CCC(F)(F)CC3)cc(N[C@H]3CCN(C)C3=O)n2)n1` (single isomer, unassigned) [Compound 128, (+)-3-((6-((4,4-difluorocyclohexyl)amino)-2-(3,5-dimethyl-1H-pyrazol-1-yl)pyrimidin-4-yl)amino)-1-methylpyrrolidin-2-one], the SC100 entry was “+ (+ means >1 uM)”.

`Cc1cc(C)n(-c2cc(N[C@H]3CCN(C)C3=O)cc(NC3CCC(F)(F)CC3)n2)n1` (single isomer, unassigned) [Compound 138, (+)-3-((2-((4,4-difluorocyclohexyl)amino)-6-(3,5-dimethyl-1H-pyrazol-1-yl)pyridin-4-yl)amino)-1-methylpyrrolidin-2-one]: the SC100 result is recorded as “+ (+ means >1 uM)”. On the same count and under the same terms, the same measure for `Cc1cc(C)n(-c2cc(N[C@@H]3CCN(C)C3=O)cc(NC3CCC(F)(F)CC3)n2)n1` (single isomer, unassigned) [Compound 139, (−)-3-((2-((4,4-difluorocyclohexyl)amino)-6-(3,5-dimethyl-1H-pyrazol-1-yl)pyridin-4-yl)amino)-1-methylpyrrolidin-2-one]: “+ (+ means >1 uM)”; for `Cc1cc(C)n(-c2nc(NC3CCC(F)(F)CC3)cc([C@@H](C)O)n2)n1` (single isomer, unassigned) [Compound 198, (−)1-(6-((4,4-difluorocyclohexyl)amino)-2-(3,5-dimethyl-1H-pyrazol-1-yl)pyrimidin-4-yl)ethan-1-ol]: “+ (+ means >1 uM)”. Take `Cc1cc(C)n(-c2nc(N[C@H]3CCCC(F)(F)C3)cc([C@@H](C)O)n2)n1` (single isomer, unassigned) [Compound 354]: the SC100 result was “+ (+ means >1 uM)”. In the case of `Cc1csc(-c2nc(NC3CCC(F)(F)CC3)cc([C@H](C)O)n2)n1` (single isomer, unassigned) [Compound 363], the SC100 entry is “++ (++ means 200 nM-1000 nM)”.

With `Cc1csc(-c2nc(NC3CCC(F)(F)CC3)cc([C@@H](C)O)n2)n1` (single isomer, unassigned) [Compound 364], the SC100 result is given as “++ (++ means 200 nM-1000 nM)”.

In the case of `Cc1cc(C)n(-c2nc(NC3CCC(F)(F)CC3)cc(NC(C(N)=O)C(C)C)n2)n1` (stereo in doubt) [Compound 164, (R)-2-((6-((4,4-difluorocyclohexyl)amino)-2-(3,5-dimethyl-1H-pyrazol-1-yl)pyrimidin-4-yl)amino)-3-methylbutanamide], the SC100 result is given as “+ (+ means >1 uM)”. As for `Cc1cc(C)n(-c2nc(NC3CCC(F)(F)CC3)cc(N3CCNC(C(N)=O)C3)n2)n1` (stereo not shown) [Compound 100, 4-(6-((4,4-difluorocyclohexyl)amino)-2-(3,5-dimethyl-1H-pyrazol-1-yl)pyrimidin-4-yl)piperazine-2-carboxamide], the SC100 result is on record as “+ (+ means >1 uM)”. Still for that read-out and setting: the same measure for `CC(=O)N1CCN(c2cc(-n3nc(C)cc3C)nc(NC3CCC(F)(F)CC3)n2)CC1` [Compound 101, 1-(4-(2-((4,4-difluorocyclohexyl)amino)-6-(3,5-dimethyl-1H-pyrazol-1-yl)pyrimidin-4-yl)piperazin-1-yl)ethan-1-one]: “++ (++ means 200 nM-1000 nM)”; for `CC(=O)N1CCN(c2cc(NC3CCC(F)(F)CC3)nc(-n3nc(C)cc3C)n2)CC1` [Compound 102, 1-(4-(6-((4,4-difluorocyclohexyl)amino)-2-(3,5-dimethyl-1H-pyrazol-1-yl)pyrimidin-4-yl)piperazin-1-yl)ethan-1-one]: “++ (++ means 200 nM-1000 nM)”; for `Cc1cc(C)n(-c2nc(NC3CCC(F)(F)CC3)cc(N3C[C@H]4CC3CN4)n2)n1` [Compound 103, 6-((4R)-2,5-diazabicyclo [2.2.1]heptan-2-yl)-N-(4,4-difluorocyclohexyl)-2-(3,5-dimethyl-1H-pyrazol-1-yl)pyrimidin-4-amine hydrochloride salt]: “+ (+ means >1 uM)”.

Regarding `Cc1cc(C)n(-c2cc(N3C[C@H]4C[C@@H]3CN4)nc(NC3CCC(F)(F)CC3)n2)n1` [Compound 104, 4-((1R,4R)-2,5-diazabicyclo[2.2.1]heptan-2-yl)-N-(4,4-difluorocyclohexyl)-6-(3,5-dimethyl-1H-pyrazol-1-yl)pyrimidin-2-amine], the SC100 entry is listed as “++ (++ means 200 nM-1000 nM)”. As for `Cc1cc(C)n(-c2nc(NC3CCC(F)(F)CC3)cc(N3CC4(COC4)C3)n2)n1` [Compound 105, N-(4,4-difluorocyclohexyl)-2-(3,5-dimethyl-1H pyrazol-1-yl)-6-(2-oxa-6-azaspiro[3.3]heptan-6-yl)pyrimidin-4-amine], the SC100 result is “+ (+ means >1 uM)”. As to `Cc1cc(C)n(-c2cc(N3CCNC(C(N)=O)C3)nc(NC3CCC(F)(F)CC3)n2)n1` (stereo not shown) [Compound 106, 4-(2-((4,4-difluorocyclohexyl)amino)-6-(3,5-dimethyl-1H-pyrazol-1-yl)pyrimidin-4-yl)piperazine-2-carboxamide], the SC100 entry is “++ (++ means 200 nM-1000 nM)”. Still for that read-out and setting: the same measure for `Cc1cc(C)n(-c2cc(NC(C)C(N)=O)nc(NC3CCC(F)(F)CC3)n2)n1` (stereo not shown) [Compound 107, 2-((2-((4,4-difluorocyclohexyl)amino)-6-(3,5-dimethyl-1H-pyrazol-1-yl)pyrimidin-4-yl)amino)propanamide]: “+ (+ means >1 uM)”; for `Cc1cc(C)n(-c2cc(N3CC4(COC4)C3)nc(NC3CCC(F)(F)CC3)n2)n1` [Compound 108, N-(4,4-difluorocyclohexyl)-4-(3,5-dimethyl-1H-pyrazol-1-yl)-6-(2-oxa-6-azaspiro[3.3]heptan-6-yl)pyrimidin-2-amine]: “+ (+ means >1 uM)”. Same read-out and setting: the same measure for `Cc1cc(C)n(-c2nc(NC3CCC(F)(F)CC3)cc(NC(C)C(N)=O)n2)n1` (stereo not shown) [Compound 109, 2-((6-((4,4-difluorocyclohexyl)amino)-2-(3,5-dimethyl-1H-pyrazol-1-yl)pyrimidin-4-yl)amino)propanamide]: “+ (+ means >1 uM)”; for `CCc1cnc(-n2nc(C)cc2C)nc1NC1CCC(F)(F)CC1` [Compound 111, N-(4,4-difluorocyclohexyl)-2-(3,5-dimethyl-1H-pyrazol-1-yl)-5-ethylpyrimidin-4-amine]: “+ (+ means >1 uM)”; for `Cc1cc(C)n(-c2cc(N3CCOC(C(N)=O)C3)nc(NC3CCC(F)(F)CC3)n2)n1` (stereo not shown) [Compound 114, 4-(2-((4,4-difluorocyclohexyl)amino)-6-(3,5-dimethyl-1H-pyrazol-1-yl)pyrimidin-4-yl)morpholine-2-carboxamide]: “+ (+ means >1 uM)”. Turning to `Cc1cc(C)n(-c2nc(NC3CCC(F)(F)CC3)cc(N3CCOC(C(N)=O)C3)n2)n1` (stereo not shown) [Compound 115, 4-(6-((4,4-difluorocyclohexyl)amino)-2-(3,5-dimethyl-1H-pyrazol-1-yl)pyrimidin-4-yl)morpholine-2-carboxamide], the SC100 result was “+ (+ means >1 uM)”.

Consider `Cc1cc(C)n(-c2nc3c(c(NC4CCC(F)(F)CC4)n2)CCN(Cc2ccccc2)C3)n1` [Compound 116], for which the SC100 entry was “++ (++ means 200 nM-1000 nM)”.

The values above are taken from patent publication US10774064B2 (Cadent Therapeutics, Inc., priority 2016, dated 2020).
